Data reported in the NIST ThermoML archive (doi:10.1021/je400529k).

Assays:
[1] = refractive index (Na D-line) (dimensionless); xn = mol fraction of the nth substance listed; details: 101 kPa, Liquid, Standard Abbe refractometry
[2] = xn = mol fraction of the nth substance listed; details: 101 kPa, Liquid; for viscosity: Capillary tube (Ostwald / Ubbelohde) method; for mass density: Vibrating tube method

C1C[C@@H]2[C@H]3CC[C@H](C3)[C@@H]2C1 [exo-tetrahydrodicyclopentadiene] + CCCCC1CCCCC1
Details | mass density, [2] [kg/m3] | refractive index, [1] | viscosity, [2] [mPa·s]
293.15 K, x1 = 0.1 | 811.06 | 1.444 | 1.391
293.15 K, x1 = 0.1993 | 822.96 | 1.4478 | 1.49
293.15 K, x1 = 0.2997 | 835.42 | 1.4521 | 1.602
293.15 K, x1 = 0.3991 | 848.2 | 1.4568 | 1.732
293.15 K, x1 = 0.5002 | 861.66 | 1.4613 | 1.879
293.15 K, x1 = 0.6005 | 875.49 | 1.466 | 2.044
293.15 K, x1 = 0.7 | 889.72 | 1.4712 | 2.234
293.15 K, x1 = 0.8004 | 904.57 | 1.4766 | 2.446
293.15 K, x1 = 0.8999 | 919.8 | 1.4818 | 2.688
293.15 K, x1 = 1 | 935.72 | 1.4874 | 2.992
298.15 K, x1 = 0.1 | 807.31 | – | 1.279
298.15 K, x1 = 0.1993 | 819.19 | – | 1.367
298.15 K, x1 = 0.2997 | 831.63 | – | 1.467
298.15 K, x1 = 0.3991 | 844.39 | – | 1.584
298.15 K, x1 = 0.5002 | 857.83 | – | 1.715
298.15 K, x1 = 0.6005 | 871.64 | – | 1.863
298.15 K, x1 = 0.7 | 885.86 | – | 2.032
298.15 K, x1 = 0.8004 | 900.7 | – | 2.224
298.15 K, x1 = 0.8999 | 915.95 | – | 2.438
298.15 K, x1 = 1 | 931.84 | – | 2.71
303.15 K, x1 = 0.1 | 803.53 | 1.4393 | 1.181
303.15 K, x1 = 0.1993 | 815.39 | 1.4435 | 1.261
303.15 K, x1 = 0.2997 | 827.82 | 1.448 | 1.351
303.15 K, x1 = 0.3991 | 840.57 | 1.4522 | 1.456
303.15 K, x1 = 0.5002 | 853.98 | 1.457 | 1.574
303.15 K, x1 = 0.6005 | 867.78 | 1.4619 | 1.707
303.15 K, x1 = 0.7 | 881.99 | 1.4669 | 1.858
303.15 K, x1 = 0.8004 | 896.81 | 1.4718 | 2.031
303.15 K, x1 = 0.8999 | 912.05 | 1.4774 | 2.223
303.15 K, x1 = 1 | 927.94 | 1.4831 | 2.467
308.15 K, x1 = 0.1 | 799.75 | – | 1.096
308.15 K, x1 = 0.1993 | 811.6 | – | 1.168
308.15 K, x1 = 0.2997 | 824.01 | – | 1.249
308.15 K, x1 = 0.3991 | 836.73 | – | 1.344
308.15 K, x1 = 0.5002 | 850.13 | – | 1.451
308.15 K, x1 = 0.6005 | 863.92 | – | 1.571
308.15 K, x1 = 0.7 | 878.11 | – | 1.707
308.15 K, x1 = 0.8004 | 892.92 | – | 1.862
308.15 K, x1 = 0.8999 | 908.14 | – | 2.036
308.15 K, x1 = 1 | 924.02 | – | 2.255
313.15 K, x1 = 0.1 | 795.96 | 1.435 | 1.02
313.15 K, x1 = 0.1993 | 807.79 | 1.4391 | 1.085
313.15 K, x1 = 0.2997 | 820.18 | 1.4435 | 1.159
313.15 K, x1 = 0.3991 | 832.89 | 1.448 | 1.245
313.15 K, x1 = 0.5002 | 846.27 | 1.4524 | 1.342
313.15 K, x1 = 0.6005 | 860.05 | 1.4575 | 1.451
313.15 K, x1 = 0.7 | 874.22 | 1.4626 | 1.573
313.15 K, x1 = 0.8004 | 889.02 | 1.4677 | 1.715
313.15 K, x1 = 0.8999 | 904.23 | 1.4728 | 1.872
313.15 K, x1 = 1 | 920.11 | 1.4786 | 2.069
318.15 K, x1 = 0.1 | 792.17 | – | 0.952
318.15 K, x1 = 0.1993 | 803.98 | – | 1.012
318.15 K, x1 = 0.2997 | 816.35 | – | 1.079
318.15 K, x1 = 0.3991 | 829.04 | – | 1.157
318.15 K, x1 = 0.5002 | 842.41 | – | 1.246
318.15 K, x1 = 0.6005 | 856.16 | – | 1.345
318.15 K, x1 = 0.7 | 870.32 | – | 1.456
318.15 K, x1 = 0.8004 | 885.11 | – | 1.585
318.15 K, x1 = 0.8999 | 900.32 | – | 1.727
318.15 K, x1 = 1 | 916.18 | – | 1.907
